Laboratory results published in patent publication US20060257543A1, “Molecules comprising linked organic moieties as flavor modifiers for comestible compositions” (priority 2005, published 2006).
Read-outs that look alike come from different tables or passages of the source.

How the values were obtained:
[1] = target: T1, hT1R1/hT1R3 umami receptor expressed in an HEK293 cell line (Homo sapiens, UniProt Q7RTX0+Q7RTX1); assay: In vitro hT1R1/hT1R3 umami taste receptor activation assay (FLIPR, dose response); format: cell-based
T1 construct: expressed in transfected cells; host or cells: HEK293 derivative, clone I-17, expression induced with mifepristone
T1 sequence (Q7RTX1 21-841): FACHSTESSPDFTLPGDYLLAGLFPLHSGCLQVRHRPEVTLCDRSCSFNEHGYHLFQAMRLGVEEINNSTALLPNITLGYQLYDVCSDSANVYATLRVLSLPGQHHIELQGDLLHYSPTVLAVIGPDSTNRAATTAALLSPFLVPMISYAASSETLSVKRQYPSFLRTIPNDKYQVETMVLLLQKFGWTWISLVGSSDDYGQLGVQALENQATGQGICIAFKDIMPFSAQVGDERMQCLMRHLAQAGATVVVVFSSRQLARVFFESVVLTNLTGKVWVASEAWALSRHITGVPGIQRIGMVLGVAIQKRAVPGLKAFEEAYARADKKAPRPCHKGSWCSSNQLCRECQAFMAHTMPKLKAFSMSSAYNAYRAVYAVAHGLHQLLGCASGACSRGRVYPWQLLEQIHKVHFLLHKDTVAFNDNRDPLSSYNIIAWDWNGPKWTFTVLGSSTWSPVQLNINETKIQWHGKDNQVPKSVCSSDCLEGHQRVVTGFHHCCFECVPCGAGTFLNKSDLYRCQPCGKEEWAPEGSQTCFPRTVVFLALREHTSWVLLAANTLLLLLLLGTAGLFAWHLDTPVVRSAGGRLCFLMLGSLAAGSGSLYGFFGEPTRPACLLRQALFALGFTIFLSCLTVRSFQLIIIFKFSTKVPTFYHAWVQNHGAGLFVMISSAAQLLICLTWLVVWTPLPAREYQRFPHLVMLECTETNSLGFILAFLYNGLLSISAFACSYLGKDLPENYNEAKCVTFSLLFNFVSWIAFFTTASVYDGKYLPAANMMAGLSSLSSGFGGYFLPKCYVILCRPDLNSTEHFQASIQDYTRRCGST
T1 sequence (Q7RTX0 21-852): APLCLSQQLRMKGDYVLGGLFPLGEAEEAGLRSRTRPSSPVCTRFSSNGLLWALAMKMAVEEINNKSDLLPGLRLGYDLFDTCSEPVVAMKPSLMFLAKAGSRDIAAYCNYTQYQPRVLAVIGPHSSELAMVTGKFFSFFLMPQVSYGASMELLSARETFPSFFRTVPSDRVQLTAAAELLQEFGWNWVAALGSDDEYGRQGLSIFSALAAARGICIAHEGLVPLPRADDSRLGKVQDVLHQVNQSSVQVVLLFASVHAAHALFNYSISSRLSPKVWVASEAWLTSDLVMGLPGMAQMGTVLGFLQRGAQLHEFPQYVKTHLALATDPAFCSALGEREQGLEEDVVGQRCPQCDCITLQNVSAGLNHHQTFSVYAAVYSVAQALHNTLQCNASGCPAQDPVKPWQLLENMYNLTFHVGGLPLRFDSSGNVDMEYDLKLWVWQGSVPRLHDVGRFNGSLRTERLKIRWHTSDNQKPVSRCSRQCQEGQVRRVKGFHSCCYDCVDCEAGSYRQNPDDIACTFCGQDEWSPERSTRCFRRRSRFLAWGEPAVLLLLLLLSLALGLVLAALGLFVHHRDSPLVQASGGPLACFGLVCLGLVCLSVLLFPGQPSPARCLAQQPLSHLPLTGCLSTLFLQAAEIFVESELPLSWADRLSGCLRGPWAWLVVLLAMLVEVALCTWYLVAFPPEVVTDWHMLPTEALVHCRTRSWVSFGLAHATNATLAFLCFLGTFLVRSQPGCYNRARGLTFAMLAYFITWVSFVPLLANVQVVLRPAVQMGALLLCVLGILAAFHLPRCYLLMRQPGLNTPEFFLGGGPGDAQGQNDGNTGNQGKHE
Description: In order to identify new savory flavoring agents and enhancers, including compounds with savory agonist and enhancer activities (dual activity), the tastant compounds of Formula (I) were screened in primary assays and secondary assays including compound dose response and enhancement assay. In a primary assay for potential ability to modulate umami taste, tastant compounds of Formula (I) that can be either savory flavoring agents in their own right or flavor enhancers of MSG are identified and scores of their activities are given as percentage of the maximum MSG intensity (%). In compound dose response, an EC50 is calculated to reflect the potency of the compound as a savory agonist or enhancer.
An HEK293 cell line derivative (see e.g., Chandrashekar, et al., Cell (2000) 100: 703-711) which stably expresses Gα15 and hT1R1/hT1R3 under an inducible promoter (see WO 03/001876 A2) was used to identify compounds with savory tasting properties.
Compounds disclosed in this application were initially selected based on their activity on the hT1R1/hT1R3-HEK293-Gα15 cell line. Activity was determined using an automated fluorometric imaging assay on a FLIPR instrument (Fluorometric Intensity Plate Reader, Molecular Devices, Sunnyvale, Calif.) (designated FLIPR assay). Cells from one clone (designated clone I-17) were seeded into 384-well plates (at approximately 48,000 cells per well) in a medium containing Dulbecco's modified Eagle's medium (DMEM) supplemented with GlutaMAX (Invitrogen, Carlsbad, Calif.), 10% dialyzed fetal bovine serum (Invitrogen, Carlsbad, Calif.), 100 Units/ml Penicillin G, 100 μg/ml Streptomycin (Invitrogen, Carlsbad, Calif.) and 60 pM mifepristone (to induce expression of hT1R1/hT1R3, (see WO 03/001876 A2). I-17 cells were grown for 48 hours at 37° C. I-17 cells were then loaded with the calcium dye Fluo-3AM (Molecular Probes, Eugene, Oreg.), 4 μM in a phosphate buffered saline (D-PBS) (Invitrogen, Carlsbad, Calif.), for 1.5 hours at room temperature. After replacement with 25 μl D-PBS, stimulation was performed in the FLIPR instrument and at room temperature by the addition of 25 μl D-PBS supplemented with different stimuli at concentrations corresponding to twice the desired final level. Receptor activity was quantified by determining the maximal fluorescence increases (using a 480 nm excitation and 535 nm emission) after normalization to basal fluorescence intensity measured before stimulation.
For dose-responses analysis, stimuli were presented in duplicates at 10 different concentrations ranging from 1.5 nM to 30 μM. Activities were normalized to the response obtained with 60 mM monosodium glutamate, a concentration that elicits maximum receptor response. EC50s (concentration of compound that causes 50% activation of receptor) were determined using a non-linear regression algorithm, where the Hill slope, bottom asymptotes and top asymptotes were allow to vary. Identical results were obtained when analyzing the dose-response data using commercially available software for non-linear regression analysis such as GraphPad PRISM (San Diego, Calif.).

[2] = target: T1, hT1R1/hT1R3 umami receptor expressed in an HEK293 cell line; assay: Umami taste enhancement activity assay (EC50 ratio vs. MSG); format: cell-based
Description: In umami taste enhancement activity assay experiments, which produce an “EC50 ratio” measurement of how effectively the tastant compounds of the invention enhance the savory flavorant (typically MSG) already in a test solution. A series of measurements of the dose response is run in solutions comprising MSG alone, then a second dose response is run with MSG in combination with predetermined amounts of a candidate compound of Formula (I) at the same time.
In this assay, increasing concentrations of monosodium glutamate (ranging from 12 μM to 81 mM) were presented, in duplicates, in the presence or absence of a fixed concentration of the test compound. Typical compound concentrations tested were 30 μM, 10 μM, 3 μM, 1 μM, 0.3 μM, 0.1 μM and 0.03 μM. The relative efficacy of compounds of Formula (I) at enhancing the receptor was determined by calculating the magnitude of a shift in the EC50 for monosodium glutamate. Enhancement was defined as a ratio (EC50R) corresponding to the EC50 of monosodium glutamate, determined in the absence of the test compound, divided by the EC50 of monosodium glutamate, determined in the presence of the test compound.
Stated alternatively, “EC50 ratio” as compared to MSG is calculated based on the following definitions:
EC50 Ratio vs. MSG=EC50 (MSG)/EC50 (MSG+[Compound]) • wherein “[compound]” refers to the concentration of the compound of Formula (I) used to elicit (or enhance or potentiate) the MSG dose response.
It should be noted that the EC50 ratio measured can depend somewhat on the concentration of the compound itself. Preferred savory enhancers would have a high EC50 Ratio vs. MSG at a low concentration of the compound used. Preferably the EC50 ratio experiments to measure umami enhancement are run at a concentration of a compound of Formula (I) between about 10 μM to about 0.1 μM, or preferably at […] or 3.0 μM.

Structure (SMILES)	EC50 ([1]; read-out: EC50 for activation of a hT1R1/hT1R3 umami receptor expressed in an HEK293 cell line)	EC50 ratio (enhanced the effectiveness of monosodium glutamate) ([2]; compound present at 0.03 μM)	EC50 ([1]; read-out: Umami EC50)	EC50 ratio (vs. MSG) ([2]; compound @ 3 μM)	EC50 ratio (vs. MSG) ([2]; compound @ 1 μM)
CCCC(CCC)NC(=S)c1ccc2c(c1)OCO2 [Example 1, N-(heptan-4-yl)benzo[d][1,3]dioxole-5-carbothioamide]	8.8 µM	3			
O=C(OCCCc1nc2ccccc2[nH]1)c1cccs1 [Example A6]			3.5 µM	4.4	
O=C(OCCCn1ncc2ccccc2c1=O)c1cccs1 [Example A7]			6 µM	3.8	
COc1ccc(CNc2ccccn2)cc1 [Example A8]			11.8 µM		3.1
COc1ccc(CNc2nc3ccccn3n2)cc1 [Example A9]			11.8 µM	3.6	
O=C(SCc1ccccn1)c1ccccc1 [Example A11]			6.34 µM	6.5	
c1ccc2oc(SCc3cn4ccccc4n3)nc2c1 [Example A12]			5.14 µM		2.81
c1ccc2sc(SCc3cn4ccsc4n3)nc2c1 [Example A13]			5.19 µM	3.6	
S=C(NCCc1ccccn1)Nc1cccc(Cl)c1 [Example A17]			4.53 µM		4.7
O=S(=O)(NCc1cc(F)cc2c1OCOC2)c1ccc(-c2ccccn2)s1 [Example A23]			10.3 µM		
